What was measured:
[1] = LNP formulation screening: physical characteristics; format: physicochemical; settings: LNP with surrogate RNA coding for luciferase
Experimental: (§1) An exemplary LNP delivery system was developed to effectively and safely deliver therapeutic nucleic acids into the cytosol of various cell types after local administration in vivo. The early formulation work was performed with several promising LNP formulations and surrogate RNA coding for luciferase. The aim of the experiments was to correlate the effect of different ionizable cationic lipids on the efficacy of RNA delivery by LNPs in vivo. Formulations were compared in terms of RNA encapsulation efficiency, apparent pKa, LNP size and polydispersity.

liver = assay: in vivo screening of LNP with luciferase (Luc) RNA, intravenous administration
Experimental: as §1
Based on this the ALC-0315/DSPC/CHOL/ALC-0159 prototype was submitted for in vivo screening. The results presented in FIG. 16 summarize the in vivo testing of two independent pilot batches using luciferase (Luc) RNA.
The formulation screening procedure described above involves intravenous administration resulting in delivery primarily to the liver. The mechanism of LNP uptake into hepatocytes is driven by binding of endogenous apolipoproteins to the LNP followed by receptor-mediated endocytosis e.g. through low density lipoprotein receptors. […] Luc expression was monitored at 4, 24, 72 and 96 hours post administration (FIG. 17).

For CCCCCCCCC(CCCCCC)C(=O)OCCCCCCN(CCCCO)CCCCCCOC(=O)C(CCCCCC)CCCCCCCC (centres unmarked) [ALC-0315, ((4-hydroxybutyl)azanediyl)bis(hexane-6,1-diyl)bis(2-hexyldecanoate)], the “physical characteristics regarding particle size, homogeneity, and RNA encapsulation efficiency” value [1] was “suitable” and the “potency as cationic lipid” value (liver) was “highly potent”.

Source: patent US11779659B2, “RNA constructs and uses thereof” (priority 2020, dated 2023)
